According to patent US20070166547A1, “Use of a layer consisting of hydrophobic linear, or two-dimensional polycyclic aromatics as a barrier layer or an encapsulation and electric components constructed with a layer of this type and comprising organic polymers” (priority 2003, published 2007):

Columns and labels:
[1] = tested on: indicator enzymes in blood plasma; assay: Morphine abstinence model: indicator enzymes AST, ALT, γ-GTP in blood plasma; assay type: in vivo, rats Wistar; conditions: for ALT, Ci, mE/l, Control + compound / AST, Ci, mE/l, Control + compound / γ-GTP, Ci, mE/l, Control + compound: compound alone 20.0 mg/kg intramuscularly; for ALT, Ci, mE/l, control + Morphine + Compound / AST, Ci, mE/l, control + Morphine + Compound / γ-GTP, Ci, mE/l, control + Morphine + Compound: morphinized rats then compound 20.0 mg/kg intramuscularly
Description: The experiments were carried out on rats in series of 7 animals on each compound according to the invention. Non-morphinized animal with not administered with compounds according to the invention were used as a control group. […] Then the rats were decapitated, the blood from somnolent arteries was collected in test tubes with solution EDTA as an anticoagulant, centrifuged at 1500 g for 15 minutes at 4° C.
To estimate possible hepatoprotective action of the compounds according to the invention under conditions of development of an oxidizing stress in the liver cells, effect of these compounds on the most important biochemical blood indexes, in particular, on the content in blood plasma of indicator enzyme of aspartateaminotransferase (AST), alanineaminotransferase (ALT), γ-glutamiletranspeptidase (γ-GTP) was investigated. The content of enzymes was estimated by their catalyzing activity in blood plasma.
The activity of AST, ALT and γ-GTP was determined by means of diagnostic sets DiaSys, Germany.

[2] = tested on: embyronic fibroblasts of mouse NIH-3T3; assay: Endocellular pHi of fibroblasts by microspectrofluorimetry (FDA, BCECF-AM); assay type: cell-based; conditions: for rise of pHi: fibroblasts in an attached spread state; for increase of pHi: 20 minutes
Description: The effect of the compounds according to the invention on the endocellular pH, embyronic fibroblasts of mouse NIH-3T3 supplied by the All-Russian Collection of Cellular Cultures of the Institute of Cytology of the Russian Academy of Sciences St. Petersburg was investigated. The cells were grown in the DMEM (Sigma) medium containing 2.2 g/l of sodium bicarbonate with addition of 80.0 mkg/ml of gentamicin and 10.0% embryonal veal serum at a temperature of 37° C. in an atmosphere containing 5.0% of carbon dioxide. For these experiments use was also made of a medium buffer with 5.0 mM of HEPES and 15.0 mM of sodium bicarbonate without serum or with addition of 5.0% serum. The cells were calculated with the help of a hemocytometer. A share of the dead cells was determined by colouring trypan blue.
The measurements of the endocellular pHi were carried out with the help of colorants FDA (Sigma) and BCECF-AM (Calbiochem) on a microspectrofluorimeter by a standard technique (Koshevoy Yu. V., Akatov V. S., Grobova M. E. Microspectrofluorimeter for measuring endocellular pH (micro pH)”. Devices and equipment for studies in the field of physical-and-chemical biology and biotechnology. Pushchino, 1990. P. 8-14).
The cells at a temperature of 37° C. were colored within 5 minutes with 5.0 mkM PDA that before the colouring was prepared from a 10.0 mM solution in acetone by dilution for 30 minutes in a phosphatic buffer to 0.1 mM or 2.0 mkM 1.0 mM solution BCECF-AM in DMSO.
The two-wave method of determining pHi was used based on the ratio intensities of fluorescence of the cells on two wavelengths (Akatov V. S. et all), “Endocellular pH and substrate dependence of proliferation of fibroblasts of Chinese hamster, Cytology, 1991, 33 (7), p. 86-94). The fluorescence was excited by light at λ=490 nm, the emission was recorded simultaneously with two photomultipliers on wavelengths λ=535 nm and λ=570 nm. The K-ratio of the fluorescence on two wavelengths was determined with a deduction of the background fluorescence of the medium near the investigated cells for 40-60 individual cells, which are then averaged taking into account the measurement error. A thermostatically controlled table was used that allowed measurements to be conducted at a temperature of 37° C. An account was taken for the photodynamic damage of the pigmented cells during-long-time continuous illumination by excited light. The readings were taken from a section of the preparation exposed to light for not more than 5 minutes.
The calibration curves for determining the absolute pHi values by magnitude K were constructed using the Thomas technique (Thomas J. A., Bushbaum R. N., Zimniak A. w Racker E. “Intracellular pH measurements in Ehrlich ascites tumor cells utilizing spectroscopic probe generated in situ”, Biochemistry, 1979, v. 18, p. 2210-2218), for which case the pigmented cells treated for 5-10 minutes with carboxyacidic nigericyn (Calbiochem) at a concentration of 5-10 mkg/ml was placed in a solution with a high content of potassium—130 mM KCl, 1.0 mM MgCl2, 20.0 mM of HEPES) and with pH values from 6.2 to 7.6. The K values were measured in the media with different pH assuming that pHi of the cells equals to the pH of the medium due to the action of nigericyn, which exchanges potassium ions for protons and at a high content of potassium in the medium counterbalances the pH of the medium and cells. Calibration curves were used based on the fluorescence of same medium with addition of 5.0 mkM of fluorescence or BCECF were used to the control the stability of the of the instrument readings.
The correctness of the technique was confirmed in the experiments on measurements of pH values of cells treated with protonofor monencine raising pH of the cells due to replacement of sodium ions by protons, and by determining the dependence of the change of pHi on the change of the pH of the medium. […]

[3] = medium with 10.0% blood serum, 0.02 mkg/ml, suspension
[4] = medium with 10.0% blood serum, 0.2 mkg/ml, suspension
[5] = medium with 10.0% blood serum, 2.0 mkg/ml, suspension
[6] = medium with 10.0% blood serum, 20.0 mkg/ml, suspension
[7] = medium without blood serum, 0.02 mkg/ml
[8] = medium without blood serum, 0.2 mkg/ml
[9] = medium without blood serum, 2.0 mkg/ml
[10] = medium without blood serum, 20.0 mkg/ml
[11] = medium without blood serum, 200 mkg/ml
[12] = medium without blood serum, 1000 mkg/ml

## O=c1[nH][nH]c(=O)c2nccnc12.[Li] [Compound 25, lithium salt of pyrazine[2,3-d]-6H-pyridazine-5,8-dione]
[1]
  ALT, Ci, mE/l, Control + compound: 115.27 ± 1.09 mE/l
  AST, Ci, mE/l, Control + compound: 177.34 ± 6.13 mE/l
  γ-GTP, Ci, mE/l, Control + compound: 7.57 ± 1.93 mE/l
  ALT, Ci, mE/l, control + Morphine + Compound: 121.96 ± 3.4 mE/l
  AST, Ci, mE/l, control + Morphine + Compound: 196.46 ± 15.34 mE/l
  γ-GTP, Ci, mE/l, control + Morphine + Compound: 11.37 ± 1.54 mE/l

## Nc1cccc2c(=O)[nH][nH]c(=O)c12.[Na] [Compound 15, sodium salt of 5-amino-benzo[d]-3H-pyridazine-1,4-dione]
[2]; 2.0 mkg/ml
  rise of pHi: 0.10 unit pHi
[2]; 20.0 mkg/ml
  rise of pHi: 0.07 unit pHi
[2]; [3]
  increase of pHi: do not initiate a change of pH
[2]; [4]
  increase of pHi: 0.1 unit pH
[2]; [5]
  increase of pHi: 0.12 unit pH
[2]; [6]
  increase of pHi: do not initiate a change of pH
[2]; [7]
  increase of pHi: no effect was found
[2]; [8]
  increase of pHi: no effect was found
[2]; [9]
  increase of pHi: 0.08 unit pHi
[2]; [10]
  increase of pHi: 0.08 unit pHi
[2]; [11]
  increase of pHi: no effect was found
[2]; [12]
  increase of pHi: no effect was found
[1]
  ALT, Ci, mE/l, Control + compound: 113.48 ± 2.39 mE/l
  AST, Ci, mE/l, Control + compound: 173.46 ± 5.63 mE/l
  γ-GTP, Ci, mE/l, Control + compound: 7.03 ± 2.82 mE/l
  ALT, Ci, mE/l, control + Morphine + Compound: 121.08 ± 5.04 mE/l
  AST, Ci, mE/l, control + Morphine + Compound: 195.57 ± 18.68 mE/l
  γ-GTP, Ci, mE/l, control + Morphine + Compound: 10.69 ± 1.84 mE/l

## Nc1ncc2c(=O)[nH][nH]c(=O)c2n1 [Compound 36, 2-amino-pyrimido[4,5-d]-6H-pyridazine-5,8-dione]
[2]; 2.0 mkg/ml
  rise of pHi: 0.10 unit pHi
[2]; 20.0 mkg/ml
  rise of pHi: 0.07 unit pHi
[2]; [3]
  increase of pHi: do not initiate a change of pH
[2]; [4]
  increase of pHi: 0.1 unit pH
[2]; [5]
  increase of pHi: 0.12 unit pH
[2]; [6]
  increase of pHi: do not initiate a change of pH
[2]; [7]
  increase of pHi: no effect was found
[2]; [8]
  increase of pHi: no effect was found
[2]; [9]
  increase of pHi: 0.08 unit pHi
[2]; [10]
  increase of pHi: 0.08 unit pHi
[2]; [11]
  increase of pHi: no effect was found
[2]; [12]
  increase of pHi: no effect was found

## O=c1[nH][nH]c(=O)c2c(Br)ncnc12.[K] [Compound 37, potassium salt of 4-bromine-pyrimido[4,5-D]-6H-pyridazine-5,8-dione]
[1]
  ALT, Ci, mE/l, Control + compound: 113.84 ± 2.0 mE/l
  AST, Ci, mE/l, Control + compound: 174.82 ± 4.91 mE/l
  γ-GTP, Ci, mE/l, Control + compound: 8.14 ± 2.64 mE/l
  ALT, Ci, mE/l, control + Morphine + Compound: 120.84 ± 5.20 mE/l
  AST, Ci, mE/l, control + Morphine + Compound: 193.58 ± 14.18 mE/l
  γ-GTP, Ci, mE/l, control + Morphine + Compound: 10.32 ± 2.67 mE/l

## O=c1[nH]n([C@@H]2O[C@H](CO)[C@@H](O)[C@H]2O)c(=O)c2nc(O)cnc12.[Na].[Na] [Compound 23, disodium salt of 2-hydroxy-7-(β-D-ribofuranosile)pyrazine[2,3-Cl]-6H-pyridazine-5,8-dione]
[2]; 2.0 mkg/ml
  rise of pHi: 0.10 unit pHi
[2]; 20.0 mkg/ml
  rise of pHi: 0.07 unit pHi
[2]; [3]
  increase of pHi: do not initiate a change of pH
[2]; [4]
  increase of pHi: 0.1 unit pH
[2]; [5]
  increase of pHi: 0.12 unit pH
[2]; [6]
  increase of pHi: do not initiate a change of pH
[2]; [7]
  increase of pHi: no effect was found
[2]; [8]
  increase of pHi: no effect was found
[2]; [9]
  increase of pHi: 0.08 unit pHi
[2]; [10]
  increase of pHi: 0.08 unit pHi
[2]; [11]
  increase of pHi: no effect was found
[2]; [12]
  increase of pHi: no effect was found
